These results are taken from patent US20230293524A1, “OTIC FORMULATIONS FOR DRUG-INDUCED OTOTOXICITY” (Spiral Therapeutics Inc, priority 2019, published 2023).

The subject of data set [1] is outer hair cells (OHCs) and inner hair cells (IHCs). Briefly: Cochlear explant model: hair cell protection against cisplatin. The settings on record: for protection of hair cells against cisplatin: 1.5 hour pretreatment followed by co-treatment at different concentrations with 10 μM cisplatin; for EC100: Rattus norvegicus, read-out: Ex-vivo Efficacy Conc. for complete protection of hair cells (uM). Format: cell-based, Sprague-Dawley rats. An excerpt:
(§1) For hair cell and spiral ganglion assessment, postnatal Sprague-Dawley rats (P2-P4) of both sexes are anesthetized with isoflurane and decapitated. Temporal bones are removed and transferred to a cell culture dish with ice-cold Ca^2+/Mg^2+-containing phosphate-buffered saline (PBS; Invitrogen) or cold HBSS medium enriched with glucose. Under microscopic visualization, the cochlear capsules are carefully removed from the temporal bone using forceps and transferred to a new cell culture dish containing ice-cold PBS. The cochleae are then dissected from the cochlear capsule using fine forceps. The stria vascularis is removed from the cochlear tissue and discarded. Dissected cochlear epithelia are transferred to permeable membrane inserts (Millicell organotypic culture plate inserts, Millipore) which are placed into 1 mL of culture media (Dulbecco's modified Eagle's medium (high glucose, Glutamax, 25 mM HEPES) with 10% fetal bovine serum, 1% N2 supplement and 10 units/ml penicillin) in a 6-well plate. Up to 4 cochleae are placed onto each membrane. Explants are placed in a humidified chamber with 5% CO2 at 37° C. for a minimum of 18 hours prior to treatment. Cultures are then pre-treated with test compounds and returned to the incubator for a period of 10 minutes to 48 hours.
(§2) Following the incubation period, cochlear samples are fixed in 4% paraformaldehyde for a minimum of 30 minutes after treatment then permeabilized in 0.5% Triton in PBS (PBST) for 1 hour, followed by overnight incubation at 4° C. in primary antibodies in 10% goat or donkey serum (Sigma). Samples are then rinsed in PBST 2 times for 10 minutes each then incubated in alexa-488 conjugated secondary antibodies for 2 hours at room temperature or overnight at 4° C. in 10% goat or donkey serum (Sigma). Samples are then rinsed 2 times in PBS then incubated in DAPI (1:3000) in PBS for 5 minutes prior to mounting on slides. To evaluate the otoprotective efficacy of the compounds, cochlear samples are immunostained using combination of antibodies generated against markers specific for hair cells (Myosin V1, Myosin VIIA, Parvalbumin, etc.), SGNs (TUJ1, Neurofilament, etc.), f-actin, cell death, cell stress, etc. as well as a nuclear stain to identify cell nuclei.
(§3) Immunostained samples are mounted on glass slides and imaged with an LSM880 laser scanning confocal microscope (Zeiss) or an Operetta high-content imager (Perkin Elmer). The entire explant is imaged for all antibody and nuclear labeling in a 3-dimensional X-Y-Z plane in which the Z-plane consists of a stack imaged at intervals of 0.5-5 μm. The total length of the organ of Corti in each explant is then determined and is divided into 4 equal length regions. Basal, middle and apical hair cells or SGNS are counted at the regions approximately 25%, 50% or 75% of the total cochlear length from the base, respectively. Hair cell survival is determined by counting the number of inner and outer hair cells at these three different regions (base, middle and apex) in each cochlear explant and determining the number of missing/dead hair cells per cochlear region. Hair cell counts are obtained by placing a 200 μm length scale bar parallel to the rows of hair cells at each region and manually counting the total number of outer hair cells (OHCs) and inner hair cells (IHCs) within the 200 μm. Similarly, to evaluate the health and survival of SGNs, the density of SGN fibers or soma is also determined per region by manual counting for same region selected for counting hair cells. Nuclear staining is analyzed to confirm the presence or absence of cell nuclei and to evaluate nuclear health. Image analysis and quantification is performed using Zeiss Zen Blue software, or Perkin Elmer Columbus software.
(§4) Neonatal (P2-P4) Sprague-Dawley rats were used for the experiments described here. Animals were euthanized following anesthesia using isoflurane. Rat cochleae were then dissected in cold HBSS medium enriched with glucose. […]

A short description of data set [2]: Cisplatin binding, % bound.
The test system of data set [3] is spiral ganglion neurons (SGNs). Briefly: Cochlear explant model: spiral ganglion neuron protection against cisplatin. Format: cell-based, Sprague-Dawley rats. To be noted: 1.5 hour pretreatment followed by co-treatment at different concentrations with 10 μM cisplatin.
From the text: as §1, §2, §3, §4

The nature of data set [4]: Pharmacokinetic study after intratympanic administration. Format: in vivo, rats. The settings on record: cochlear epithelium, 24 h after dosing. The method, then: Female rats (Charles River) weighing 200-300 g of approximately 12-16 weeks of age served as subjects (N=4 per group). Prior to any procedures, animals were anesthetized using a combination of xylazine (10 mg/kg), ketamine (50 mg/kg), and acepromazine (1 mg/kg) for up to an hour via the intraperitoneal route. If needed, an intraoperative booster was administered intraperitoneal representing a one-tenth of the original dose.
Intratympanic injection—Each animal was positioned so that the head was tilted at an angle to favor injection towards the round window niche. […] Formulations were delivered using a perfusion pump at the rate of 2 μL/sec. Contact with the round window membrane was maintained for 30 minutes by placing the animal in a recumbent position. During the procedure and until recovery, animals were placed on a temperature controlled (40° C.) heating pad until consciousness was regained at which time they were returned to the vivarium.
Perilymph sampling procedure—The skin behind the ear of anesthetized rats was shaved and disinfected with povidone-iodine. An incision was then made behind the ear, and muscles were carefully retracted from over the bulla. A hole was drilled through the bulla using a dental burr so that the middle ear was exposed and accessed. The cochlea and the round window membrane were visualized under a stereo surgical microscope. The basal turn of bulla was cleaned by using small cotton ball. A unique microhole was hand drilled through the bony shell of the cochlea (cochlear capsule) adjacent to the round window. Perilymph (about 2 μL) was then collected using a microcapillary inserted into the cochlear scala tympani. Perilymph samples were added to a vial containing 18 μL of acetonitrile/water, stored at −80° C. until analysis.
Cochlear epithelium sampling procedure—Under a dissection scope, the bulla was opened, and the cochlea was exposed by removing all surrounding muscles, blood vessels and bone tissues. Holding the bulla, the cochlear wall bony structure was removed working from the base to the apex of the cochlea, exposing the organ of Corti. The exposed cochlear epithelium was gently dabbed with cotton swab to remove excess of liquid from tissue, carefully transferred to labelled tube. Each 2-mL plastic tube that contained acid washed 2.8 mm stainless steel beads was pre-weighed. The tubes were reweighed after adding cochlea epithelium and weights were recorded. All cochlea epithelium samples were placed in dry ice immediately after collection and stored at −80° C. prior to analysis.
Plasma sampling procedure—Blood samples were collected by cardiac puncture into labeled micro-tubes, containing lithium heparin as anticoagulant. Plasma were immediately harvested from the blood by centrifugation and collection for supernatants. All plasma samples were stored at −80° C. prior to analysis.
Samples were extracted by protein precipitation, then vortexed and centrifuged. The supernatant was collected and diluted with two folds of water. A high-performance liquid chromatography system (Agilent 1200 series) with Waters Cortecs C18 Plus column (50*4.6 mm, 2.7 μm) were used. The flow rate was set at 0.700 mL/min. A gradient method with an analytical run time of 5 minutes was used. Mobile phase A consisted of 0.01% ammonium formate, 0.03% formic acid in water. Mobile phase B consisted of 0.01% ammonium formate, 0.03% formic acid in acetonitrile: methanol (70:30, v/v). The gradient began with 30% B, stepped to 70% B at 2.75 minutes and held for 1 minute and then stepped back to 30% B to re-equilibrate the column.
Ionizations and detection of analyte and internal standard were performed on a triple quadruple mass spectrometer, API 5500 Q-Trap equipped with Turbo IonSpray@, from SCIEX (Toronto, Canada). Electro spray ionization (ESI) mass spectra was operated in the positive ion mode. Carbutamide was used as the internal standard (IS). […]

Data set [5] can be described thus: Cisplatin reaction kinetics by HPLC. The settings on record: 50 μM cisplatin + 50 μM of compound (API) in PBS, pH 7.4, 37° C. The method, then:
Reaction kinetics between Cisplatin and the compound of interest (nucleophile) were monitored by high performance liquid chromatography. Isocratic separation was achieved using a Waters Spherisorb C8 column (4×250 mm, 5 μm, 80 Å). The flow rate was set to 1.00 mL/min. The mobile phase consisted of 5 mM Sodium Octanesulfonate+5 mM Tetrabutyl Ammonium Hydrogen Sulfate+20 mM Potassium Dihydrogen Phosphate adjusted to pH 5.9. Detection was performed at a wavelength of 210 nm.
Reactions were conducted at equimolar concentrations in buffered aqueous media and held at 37° C. Rate constants (k) were determined by monitoring the disappearance of Cisplatin as a function of time.

Data set [6] is described as follows: Rat cisplatin IP PK study, total platinum by ICP-MS. Format: in vivo. To be noted: for Cmax: read-out: Cmax concentrations in perilymph and cochlear tissues. The method, then:
Total platinum level in samples were analyzed by a qualified inductively coupled plasma mass spectrometric detection (ICP-MS) developed in QPS (Netherlands Lab). Ruthenium were used as internal standard. A flow injection analysis (FIA) method was used to using HPLC pump to introduce samples and internal standard into the systems but without HPLC column. The ICP-quadrupole-MS of Perkin Elmer Sciex Elan 6100 ICP-MS System equipped with a peristaltic pump, nebulizer, spray chamber, and quartz torch were used in platinum analyses.
Sample transport from the autosampler to the nebulizer was performed using a peristaltic pump. The instrument was cooled by using argon gas of 99.999% purity. Data were acquired and processed using the Analyst 1.6. The instrument settings of the ICP-MS had the following operating parameters: ICP radio frequency (RF) power, 1500 W; RF matching, 1.80 V; sampling depth, 8.0 mm; carrier gas, 0.90 L/min; makeup gas, 0.21 L/min; nebulizer pump, 0.10 rps; He gas, 4.5 mL/min; extract 1, 0.0 V; extract 2, −120.0 V; cell entrance, −30 V; cell exit, −30 V; QP bias, −16.0 V; Octp bias, −20.0 V.
The mass to charge ratio is determined by the detector. […] Electronic signals were compared to the standardized curve generated from ultra-high purity platinum samples and solvents. Accounting for dilutions, comparison of the sample signal to the standardized curve will allow for the determination of the original total platinum concentration.
Intraperitoneal injection—The lower right quadrant of the abdomen was shaved and disinfected with alcohol and then povidone iodine. Animals were placed in a supine position and the hind legs were lifted at a 40-degree angle in order to move the abdominal organs towards the diaphragm. A 1″ 23G needle or larger was inserted into the abdominal cavity, directed towards the animal's head, at a 15-20-degree angle and inserted approximately 5 mm. […] After removal of the syringe from the peritoneal cavity, triple antibiotic was placed on the injection site to help prevent infection. During the procedure and until recovery, animals were placed on a temperature controlled (40° C.) heating pad until consciousness was regained at which time they were returned to the vivarium.
Protocol: 3 animals per group at time points. Group A: 30 min, 1 hr, 2 hr, 6 hr, 1 day, 3 day, 7 day, 28 day. Group B: 30 min, 1 hr, 2 hr, 6 hr, 1 day, 3 day. Bioanalysis: Plasma, Perilymph, Cochlear epithelium, CSF. Bioanalytical Method: Total Platinum by ICP-MS.

Setting [7] is: intraperitoneal (IP) administration.

Read-outs that look alike come from different tables or passages of the source. Some results are limits rather than exact numbers.

On to `Sc1ncnc2nc[nH]c12` [6-mercaptopurine], for which, in data set [1], the “protection of hair cells against cisplatin” value is given as “complete protection” and the EC100 lay within 50 to 100 µM. For the same compound, the “Cisplatin Binding % bound (in 30 min) at 1:10 ratio” value in data set [2] came out at 60%. The “protection of spiral ganglion neurons against cisplatin” value (shortened to “protection of spiral ganglion neurons”) in data set [3] was “near complete protection”.

`CSCC[C@@H](N)C(=O)O` [D-methionine, reference compound]: the EC100 in data set [1] came out at 10000 µM. Besides, the “In vivo PK in Cochlear Epithelium (24 h after dosing)” value in data set [4] is about 200 ng/gm CE. Besides, the “Cisplatin Binding % bound (in 30 min) at 1:10 ratio” value in data set [2] is given as 40%. The “k” value in data set [5] was 0.07 M⁻¹ s⁻¹.

For the compound `Nc1nc2nc[nH]c2c(=S)[nH]1` [6-thioguanine], in data set [1], the “protection of hair cells against cisplatin” value is “complete protection” and the EC100 fell in the range of 50 to 100 µM. For the same compound, in data set [2], the “Cisplatin Binding % bound (in 30 min) at 1:10 ratio” value is reported as 80%. In addition, the “protection of spiral ganglion neurons” value in data set [3] is “near complete protection”.

For the compound `O=S(=O)(O)CCS` [MESNA, reference compound], in data set [5], the “k” value is 0.05 M⁻¹ s⁻¹.

For the compound `N.N.[Cl][Pt][Cl]` [cisplatin], in data set [6] (dosed at 10 mg/kg IP), the “Cmax concentrations in perilymph and cochlear tissues” value lay in the range of 700 to 750 ng/mL; the Cmax was in the range of 2300 to 2500 nM. Further, in data set [6] (dosed at 12 mg/kg IP), the “Cmax concentrations in perilymph and cochlear tissues” value fell in the range of 700 to 900 ng/mL; the Cmax was in the range of 2300 to 3000 nM. In addition, in data set [6] (setting [7]), the “time of peak cisplatin levels in cochlear tissues” value worked out at 6 h and the “time of peak cisplatin levels in perilymph” value is on record as at most 30 min.

As to `Nc1nc2c(ncn2[C@H]2C[C@H](O)[C@@H](CO)O2)c(=S)[nH]1` [6-thio-2′-deoxy guanosine], in data set [1], the “protection of hair cells against cisplatin” value is “complete protection” and the EC100 was 100 µM. The “Cisplatin Binding % bound (in 30 min) at 1:10 ratio” value in data set [2] is on record as 50%. In data set [3], the “protection of spiral ganglion neurons” value is given as “near complete protection”.

With `O=c1cc[nH]c(=S)[nH]1` [Compound 2-thiouracil, 2-thiouracil], in data set [1], the EC100 was in the range of 50 to 100 µM. For the same compound, in data set [5], the “k” value was 0.15 M⁻¹ s⁻¹.

With `CSC[C@H]1O[C@@H](n2cnc3c(N)ncnc32)[C@H](O)[C@@H]1O` [5-Deoxy-5-methylthioadenosine], the “Ex-vivo Efficacy Conc. for complete protection of hair cells (uM)” value in data set [1] (ex vivo cochlear explants, cisplatin) is on record as “No protection”.

As to `COc1cc(=O)[nH]c(=S)[nH]1` [6-methoxy-2-thiouracil], the EC100 in data set [1] is 50 to 100 µM.

Consider `Nc1nc2c(ncn2[C@@H]2O[C@H](CO)[C@@H](O)[C@H]2O)c(=S)[nH]1` [6-thioguanosine], for which, in data set [1], the “protection of hair cells against cisplatin” value is “complete protection” and the EC100 fell in the range of 50 to 100 µM. For the same compound, in data set [3], the “protection of spiral ganglion neurons” value is on record as “near complete protection”.

For the compound `CC(=O)c1c[nH]c(=S)n(-c2ccc(C)cc2)c1=O` [5-acetyl-3-(p-tolyl)-2-thiouracil], the EC100 in data set [1] was 500 µM. In addition, in data set [1] (ex-vivo cochlear explants, comparison of thiouracils), the “potency on HC protection” value was “lower potency”.
